Measured values reported in patent US20040029823A1, “Antisense oligonucleotide compositions and methods for the modulation of JNK proteins” (priority 1997, published 2004).
Strand notation (5' to 3'): a small letter for the sugar, then the base; units joined by * are phosphorothioate-linked, units joined directly phosphodiester-linked; [ ] holds rarer units or linkages, { } end groups; capitals alone tell only the bases. Where a SMILES comes first, the peptide text is derived from it. The star is where a group is joined. e = 2'-O-(2-methoxyethyl) (MOE); [5mC] = 5-methylcytosine; Cbz = O=C(OCc1ccccc1)*; d = 2'-deoxy (DNA); CH2F = FC*

Tests used:
Type in all cases: cell-based, human
JNK1 mRNA = assay: Northern assay of JNK1 mRNA expression in A549 cells; conditions: for RNA % Control / RNA % Inhibition: 300 nM for 20 hours then 200 nM for 4 hours
Method: (§1) In order to evaluate the activity of potential JNK-modulating oligonucleotides, human lung carcinoma cell line A549 (American Type Culture Collection, Rockville, Md. No. ATCC CCL-185) cells or other cell lines as indicated in the Examples, were grown and treated with oligonucleotides or control solutions as detailed below. After harvesting, cellular extracts were prepared and examined for specific JNK mRNA levels or JNK protein levels (i.e., Northern or Western assays, respectively). In all cases, “% expression” refers to the amount of JNK-specific signal in an oligonucleotide-treated cell relative to an untreated cell (or a cell treated with a control solution that lacks oligonucleotide), and “% inhibition” is calculated as
100%−% Expression =% Inhibition.
Northern Assays: The mRNA expression of each JNK protein was determined by using a nucleic acid probe specifically hybridizable thereto. Nucleic acid probes specific for JNK1, JNK2 and JNK3 are described in Examples 3, 4 and 5, respectively. The probes were radiolabelled by means well known in the art (see, e.g., Short Protocols in Molecular Biology, 2nd Ed., Ausubel et al., Eds., John Wiley & Sons, New York, 1992, pages 3-11 to 2-3-44 and 4-17 to 4-18; Ruth, Chapter 6 In: Methods in Molecular Biology, Vol. 26: Protocols for Oligonucleotide Conjugates, Agrawal, ed., Humana Press Inc., Totowa, N.J., 1994, pages 167-185; and Chapter 10 In: Molecular Cloning: A Laboratory Manual, 2nd Ed., Sambrook et al., Eds., pages 10.1-10.70). The blots were stripped and reprobed with a ^32P-labeled glyceraldehyde 3-phosphate dehydrogenase (G3PDH) probe (Clontech Laboratories, Inc., Palo Alto, Calif.) in order to confirm equal loading of RNA and to allow the levels of JNK transcripts to be normalized with regard to the G3PDH signals.
A549 cells were grown in T-75 flasks until 80-90% confluent. At this time, the cells were washed twice with 10 mL of media (DMEM), followed by the addition of 5 mL of DMEM containing 20 μg/mL of LIPOFECTIN™ (i.e., 1:1 (w/w) DOTMA/DOPE, Life Technologies, Gaithersburg, Md.; DOTMA=N-[1-(2,3-dioleyoxy)propyl]-N,N,N-trimethylammonium chloride; DOPE=dioleoyl phosphatidylethanolamine). The oligonucleotides were added from a 10 μM stock solution to a final concentration of 400 nM, and the two solutions were mixed by swirling the flasks. As a control, cells were treated with LIPOFECTIN™ without oligonucleotide under the same conditions and for the same times as the oligonucleotide-treated samples. After 4 hours at 37° C., the medium was replaced with fresh DMEM containing 10% serum. The cells were allowed to recover for 18 hours. Total cellular RNA was then extracted in guanidinium, subject to gel electrophoresis and transferred to a filter according to techniques known in the art (see, e.g., Chapter 7 In: Molecular Cloning: A Laboratory Manual, 2nd Ed., Sambrook et al., Eds., pages 7.1-7.87, and Short Protocols in Molecular Biology, 2nd Ed., Ausubel et al., Eds., John Wiley & Sons, New York, 1992, pages 2-24 to 2-30 and 4-14 to 4-29). Filters were typically hybridized overnight to a probe specific for the particular JNK gene of interest in hybridization buffer (25 mM KPO4, pH 7.4; 5×SSC; 5× Denhardt's solution, 100 μg/ml Salmon sperm DNA and 50% formamide) (Alahari et al., Nucl. Acids Res., 1993, 21, 4079). This was followed by two washes with 1×SSC, 0.1% SDS and two washes with 0.25×SSC, 0.1% SDS. Hybridizing bands were visualized by exposure to X-OMAT AR film and quantitated using a PHOSPHORIMAGER™ essentially according to the manufacturer's instructions (Molecular Dynamics, Sunnyvale, Calif.)
B. JNK1-specific probes: In initial screenings of a set of oligonucleotides derived from the JNK1 sequence (Table 2) for biological activity, a cDNA clone of JNK1 (Derijard et al., Cell, 1994, 76, 1025) was radiolabeled and used as a JNK1-specific probe in Northern blots. […]

JNK1 protein = assay: Western assay of JNK1 protein levels in A549 cells; conditions: 300 nM for 20 hours then 200 nM for 4 hours
Method: as §1
Western Assays: A549 cells were grown and treated with oligonucleotides as described above. Cells were lysed, and protein extracts were electrophoresed (SDS-PAGE) and transferred to nitrocellulose filters by means known in the art (see, e.g., Chapter 18 In: Molecular Cloning: A Laboratory Manual, 2nd Ed., Sambrook et al., Eds., pages 18.34, 18.47-18.54 and 18.60-18.75)). The amount of each JNK protein was determined by using a primary antibody that specifically recognizes the appropriate JNK protein. The primary antibodies specific for each JNK protein are described in the appropriate Examples. The primary antibodies were detected by means well known in the art (see, e.g., Short Protocols in Molecular Biology, 2nd Ed., Ausubel et al., Eds., John Wiley & Sons, New York, 1992, pages 10-33 to 10-35; and Chapter 18 In: Molecular Cloning: A Laboratory Manual, 2nd Ed., Sambrook et al., Eds., pages 18.1-18.75 and 18.86-18.88) and quantitated using a PHOSPHORIMAGER™ essentially according to the manufacturer's instructions (Molecular Dynamics, Sunnyvale, Calif.).
F. Western Assays: In order to assess the effect of oligonucleotides targeted to JNK1 mRNAs on JNK1 protein levels, Western assays were performed essentially as described above in Example 2, with the following exception(s) and/or modification(s). A primary antibody that specifically binds to JNK1 (catalog No. sc-474-G) was purchased from Santa Cruz Biotechnology, Inc. (Santa Cruz, Calif.; other JNK1-specific antibodies are available from StressGen Biotechnologies, Inc., Victoria, BC, Canada; and Research Diagnostics, Inc., Flanders, N.J.). In this experiment, cells were grown and treated with oligonucleotide at 300 nM for the initial 20 hours and then at 200 nM for 4 hours. At t=48 h, aliquots were removed for Northern and Western analyses, and fresh media was added to the cells. Aliquots for analysis were also taken at t=72 h. The samples from t=48 h and t=72 h were analyzed using the Northern and Western assays described above.

HUVEC = assay: Apoptosis in HUVEC (percent hypodiploid cells, flow cytometry); conditions: HUVEC treated with JNK2 oligonucleotide plus the inhibitor
[1] = JNK1 mRNA time course, t=0 h after 4 hour treatment
[2] = JNK1 mRNA time course, time 272 h [sic] (t=72 h in text)
[3] = JNK1 mRNA, chemically modified oligonucleotides, dose 100 nM
[4] = JNK1 mRNA, chemically modified oligonucleotides, dose 400 nM

Compound	Normalized % Control (JNK1 mRNA; [3])	Normalized % Control (JNK1 mRNA; [4])	RNA % Control (JNK1 mRNA; JNK1 mRNA, t = 48 h)	RNA % Control (JNK1 mRNA; JNK1 mRNA, t = 72 h)	Protein % Control (JNK1 protein; t = 48 h)	Protein % Control (JNK1 protein; t = 72 h)	RNA % Inhibition (JNK1 mRNA; JNK1 mRNA, t = 72 h)	Protein % Inhibition (JNK1 protein; t = 48 h)	Protein % Inhibition (JNK1 protein; t = 72 h)	RNA % Inhibition (JNK1 mRNA; JNK1 mRNA, t = 48 h)	also measured
12539 (antisense CTCTCTGTAGGCCCGCTTGG; DNA, all phosphorothioate, methylation of C not given here) [compound 12539]	56.4%	26.7%	6.7%	11.7%	44.3%	29.2%	–	–	–	–	Normalized % Control (JNK1 mRNA; JNK1 mRNA dose response, 50 nM): 70.3%; Normalized % Control (JNK1 mRNA; JNK1 mRNA dose response, 100 nM): 51.6%; Normalized % Control (JNK1 mRNA; JNK1 mRNA dose response, 200 nM): 22.4%; Normalized % Control (JNK1 mRNA; JNK1 mRNA dose response, 400 nM): 11.1%; % INHIBITION (JNK1 mRNA; [1]): 85.9%; Normalized % Control (JNK1 mRNA; [1]): 14.1%; % INHIBITION (JNK1 mRNA; JNK1 mRNA time course, t=4 h): 94.1%; Normalized % Control (JNK1 mRNA; JNK1 mRNA time course, t=4 h): 5.9%; % INHIBITION (JNK1 mRNA; JNK1 mRNA time course, t=12 h): 88.4%; Normalized % Control (JNK1 mRNA; JNK1 mRNA time course, t=12 h): 11.6%; % INHIBITION (JNK1 mRNA; JNK1 mRNA time course, t=48 h): 79.0%; Normalized % Control (JNK1 mRNA; JNK1 mRNA time course, t=48 h): 21.0%; % INHIBITION (JNK1 mRNA; [2]): 58.5%; Normalized % Control (JNK1 mRNA; [2]): 41.5%; % EXPRESSION (JNK1 mRNA; JNK1 mRNA, A549 cells, 400 nM oligonucleotide, relative to LIPOFECTIN-only control): 9%
15345 (antisense e[5mC]*eT*e[5mC]*eT*e[5mC]*eT*eG*eT*eA*eG*eG*e[5mC]*e[5mC]*e[5mC]*eG*e[5mC]*eT*eT*eG*eG) [compound 15345]	95.4%	89.1%	70.3%	187.4%	105.0%	87.8%	(0.0) %	(0.0) %	12.2%	–	–
15347 (antisense CTCTCTGTAGGCCCGCTTGG; sugars from the 5' end e5 d9 e6, [5mC] at 1, 3, 5, 16, linkages o4 s10 o5 (s phosphorothioate, o phosphodiester), methylation of C not given here) [compound 15347]	27.1%	11.7%	7.9%	8.2%	38.8%	28.4%	81.8%	–	–	92.1%	inhibition of JNK1 mRNA expression (JNK1 mRNA; chemically modified derivatives of ISIS 12539, 400 nM (Table 5)): at least 88%
15348 (antisense CTCTCTGTAGGCCCGCTTGG; sugars from the 5' end e11 d9, [5mC] at 1, 3, 5, all phosphorothioate, methylation of C not given here) [compound 15348]	30.4%	32.9%	24.3%	28.0%	58.3%	41.7%	72.0%	41.7%	58.3%	75.7%	–
15349 (antisense CTCTCTGTAGGCCCGCTTGG; sugars from the 5' end d9 e11, [5mC] at 12, 13, 14, 16, all phosphorothioate, methylation of C not given here) [compound 15349]	42.5%	35.5%	63.1%	52.0%	69.5%	56.5%	48.0%	30.5%	43.5%	36.9%	–
15350 (antisense CTCTCTGTAGGCCCGCTTGG; sugars from the 5' end d9 e11, [5mC] at 12, 13, 14, 16, linkages s9 o10 (s phosphorothioate, o phosphodiester), methylation of C not given here) [compound 15350]	71.1%	41.3%	49.2%	54.4%	71.7%	58.4%	45.6%	28.3%	41.6%	50.0%	–
15351 (antisense CTCTCTGTAGGCCCGCTTGG; sugars from the 5' end e11 d9, [5mC] at 1, 3, 5, linkages o10 s9 (s phosphorothioate, o phosphodiester), methylation of C not given here) [compound 15351]	45.1%	39.8%	26.9%	46.1%	52.4%	37.0%	53.9%	–	–	73.1%	–
C[C@@H]1C[C@@H]([C@H](O)CC2CC(=O)NC(=O)C2)C(=O)[C@@H](C)C1 [cyclohexamide, reference compound]	–	–	–	–	–	–	–	–	–	–	effect on JNK2 oligonucleotide-induced cell death (apoptosis) (HUVEC): no effect
COC(=O)C[C@H](NC(=O)[C@H](C)NC(=O)[C@@H](NC(=O)OCc1ccccc1)C(C)C)C(=O)CF [z-FAD.fmk, z-VAD.fmk, reference compound] (Cbz-Val-Ala-Asp(OMe)-CH2F)	–	–	–	–	–	–	–	–	–	–	effect on JNK2 oligonucleotide-induced cell death (apoptosis) (HUVEC): decreased
